Consider 27 molecules from patent US20170260178A1 (SPERO GYRASE, INC., priority 2012, published 2017).

For experiment [1], the system named is S. aureus (ATCC 29213). The experiment in a line: Bacterial assay: MIC against S. aureus. The experiment is classed as cell-based, Staphylococcus aureus. To be noted: for MIC: Staphylococcus aureus, ATCC29213, read-out: minimal inhibitory concentration (MIC); for minimal inhibitory concentration (MIC): S. aureus ATCC 29213.
For experiment [2], the system named is S. pyogenes (ATCC 51339). Description: Bacterial assay: MIC against S. pyogenes. To be noted: for MIC: Streptococcus pyogenes, ATCC51339, read-out: minimal inhibitory concentration (MIC). It counts as cell-based, Streptococcus pyogenes.

In brackets after ≈: the same amount, converted by molar mass.

Turning to `CCNC(=O)Nc1nc2cc(-c3cnc(C(C)(C)O)nc3)cc(-c3cc(CNCCO)ccn3)c2s1` [Compound 196, 1-ethyl-3-[7-[4-[(2-hydroxyethylamino)methyl]-2-pyridyl]-5-[2-(1-hydroxy-1-methyl-ethyl)pyrimidin-5-yl]-1,3-benzothiazol-2-yl]urea], in experiment [1], the MIC turned out to be 2 µg/mL (≈ 3.94 µM).
Take `CCNC(=O)Nc1nc2cc(-c3cnc(C(C)(C)O)nc3)cc(-c3nccc(NCCOC)n3)c2s1` [Compound 78, 1-ethyl-3-[5-[2-(1-hydroxy-1-methyl-ethyl)pyrimidin-5-yl]-7-[4-(2-methoxyethylamino)pyrimidin-2-yl]-1,3-benzothiazol-2-yl]urea]: the MIC in experiment [2] and in experiment [1] was at most 1 µg/mL throughout.
In the case of `CCNC(=O)Nc1nc2cc(-c3cnc(C(C)(C)O)nc3)cc(-c3ccc(CC(=O)O)cn3)c2s1` [Compound 46, 2-[6-[2-(ethylcarbamoylamino)-5-[2-(1-hydroxy-1-methyl-ethyl)pyrimidin-5-yl]-1,3-benzothiazol-7-yl]-3-pyridyl]acetic acid], the MIC in experiment [2] and in experiment [1] was 4 µg/mL (≈ 8.12 µM) in each case.
For `CCNC(=O)Nc1nc2cc(-c3cnc(C(C)(C)O)nc3)c(OC)cc2s1` [Compound 176, 1-ethyl-3-[5-[2-(1-hydroxy-1-methyl-ethyl)pyrimidin-5-yl]-6-methoxy-1,3-benzothiazol-2-yl]urea], the MIC in experiment [2] and in experiment [1] was at most 1 µg/mL each time.
Regarding `CCNC(=O)Nc1nc2cc(-c3cnc(C(C)(C)O)nc3)cc(-c3cc(CN4C[C@@H](C)O[C@@H](C)C4)ccn3)c2s1` [Compound 164, 1-[7-[4-[[(2R,6S)-2,6-dimethylmorpholin-4-yl]methyl]-2-pyridyl]-5-[2-(1-hydroxy-1-methyl-ethyl)pyrimidin-5-yl]-1,3-benzothiazol-2-yl]-3-ethyl-urea], the MIC in experiment [2] and in experiment [1] was at most 1 µg/mL throughout.
As for `CCNC(=O)Nc1nc2cc(-c3cnc(C(C)(C)O)nc3)cc(-c3ncc(CN4CCOCC4)cn3)c2s1` [Compound 120, 1-ethyl-3-[5-[2-(1-hydroxy-1-methyl-ethyl)pyrimidin-5-yl]-7-[5-(morpholinomethyl)pyrimidin-2-yl]-1,3-benzothiazol-2-yl]urea], the MIC in experiment [2] and in experiment [1] was at most 1 µg/mL throughout.
As to `CCNC(=O)Nc1nc2cc(-c3cnc(C(C)(C)O)nc3)cc(-c3cc(CN4CCC(C)(O)C4)ccn3)c2s1` (centres unmarked) [Compound 67, 1-ethyl-3-[5-[2-(1-hydroxy-1-methyl-ethyl)pyrimidin-5-yl]-7-[4-[(3-hydroxy-3-methyl-pyrrolidin-1-yl)methyl]-2-pyridyl]-1,3-benzothiazol-2-yl]urea], the MIC in experiment [2] and in experiment [1] was at most 1 µg/mL throughout.
With `CCNC(=O)Nc1nc2cc(-c3cnc(C(O)(CC)CC)nc3)cc(-c3ccccn3)c2s1` [Compound 98, 1-ethyl-3-[5-[2-(1-ethyl-1-hydroxy-propyl)pyrimidin-5-yl]-7-(2-pyridyl)-1,3-benzothiazol-2-yl]urea], the MIC in experiment [2] and in experiment [1] was at most 1 µg/mL in each case.
For the molecule `CCNC(=O)Nc1nc2cc(-c3cnc(C(C)(C)O)nc3)cc(-c3nccc(CN4CCOCC4)n3)c2s1` [Compound 101, 1-ethyl-3-[5-[2-(1-hydroxy-1-methyl-ethyl)pyrimidin-5-yl]-7-[4-(morpholinomethyl)pyrimidin-2-yl]-1,3-benzothiazol-2-yl]urea], the MIC in experiment [2] and in experiment [1] was at most 1 µg/mL in each case.
For `CCNC(=O)Nc1nc2cc(-c3cnc(C4(O)CCNCC4)nc3)cc(-c3ccccn3)c2s1` [Compound 174, 1-ethyl-3-[5-[2-(4-hydroxy-4-piperidyl)pyrimidin-5-yl]-7-(2-pyridyl)-1,3-benzothiazol-2-yl]urea], the MIC in experiment [2] came to 2 µg/mL (≈ 4.21 µM); in experiment [1], 8 µg/mL (≈ 16.8 µM).
Taken in the same sequence, the figures for `CC(C)(O)c1ncc(-c2cc(-c3ccccn3)c3sc(NC(=O)NCCO)nc3c2)cn1` [Compound 5, 1-(2-hydroxyethyl)-3-[5-[2-(1-hydroxy-1-methyl-ethyl)pyrimidin-5-yl]-7-(2-pyridyl)-1,3-benzothiazol-2-yl]urea] were at most 1 µg/mL and 16 µg/mL (≈ 35.5 µM).
Taken in the same sequence, the figures for `CCNC(=O)Nc1nc2cc(-c3cnc(C(C)(C)O)nc3)cc(COC)c2s1` [Compound 13, 1-ethyl-3-[5-[2-(1-hydroxy-1-methyl-ethyl)pyrimidin-5-yl]-7-(methoxymethyl)-1,3-benzothiazol-2-yl]urea] were 2 µg/mL (≈ 4.98 µM) and at most 1 µg/mL.
The matching figures for `CCNC(=O)Nc1nc2cc(-c3cnc(C(C)(C)O)nc3)cc(-c3cc(CN4CC[C@@H](OC)C4)ccn3)c2s1` [Compound 42, 1-ethyl-3-[5-[2-(1-hydroxy-1-methyl-ethyl)pyrimidin-5-yl]-7-[4-[[(3R)-3-methoxypyrrolidin-1-yl]methyl]-2-pyridyl]-1,3-benzothiazol-2-yl]urea]: at most 1 µg/mL and at most 1 µg/mL.
For the molecule “1-ethyl-3-[7-[4-(4-ethylpiperazin-1-yl)pyridin-2-yl]-5-[2-(1-hydroxy-1-methyl-ethyl)pyrimidin-5-yl]-1,3-benzothiazol-2-yl]urea [Compound 79]”, the “minimal inhibitory concentration (MIC)” value in experiment [2] (S. pyogenes ATCC 51339) and in experiment [1] was 2 µg/mL each time.
On to `CCNC(=O)Nc1nc2cc(-c3cnc(C(C)(C)O)nc3)cc(-c3cc(CN4CCC(F)(F)C4)ccn3)c2s1` [Compound 34, 1-[7-[4-[(3,3-difluoropyrrolidin-1-yl)methyl]-2-pyridyl]-5-[2-(1-hydroxy-1-methyl-ethyl)pyrimidin-5-yl]-1,3-benzothiazol-2-yl]-3-ethyl-urea], for which the MIC in experiment [2] and in experiment [1] was at most 1 µg/mL in each case.
Turning to `CCNC(=O)Nc1nc2cc(-c3cnc(C(C)(C)OC(=O)N4CCN(C)CC4)nc3)cc(-c3ccccn3)c2s1` [Compound 89, [1-[5-[2-(ethylcarbamoylamino)-7-(2-pyridyl)-1,3-benzothiazol-5-yl]pyrimidin-2-yl]-1-methyl-ethyl] 4-methylpiperazine-1-carboxylate], the MIC in experiment [2] was found to be 2 µg/mL (≈ 3.57 µM); in experiment [1], 8 µg/mL (≈ 14.3 µM).
Taken in the same sequence, the figures for `CCNC(=O)Nc1nc2cc(-c3cnc(C(C)(C)OC(=O)CCC(=O)O)nc3)cc(-c3ccccn3)c2s1` [Compound 21, 4-[1-[5-[2-(ethylcarbamoylamino)-7-(2-pyridyl)-1,3-benzothiazol-5-yl]pyrimidin-2-yl]-1-methyl-ethoxy]-4-oxo-butanoic acid] were at most 1 µg/mL and 4 µg/mL (≈ 7.48 µM).
Taken in the same sequence, the figures for `CCNC(=O)Nc1nc2cc(-c3cnc(C4(O)CN(C(=O)OC(C)(C)C)C4)nc3)cc(-c3ccccn3)c2s1` [Compound 162, tert-butyl 3-[5-[2-(ethylcarbamoylamino)-7-(2-pyridyl)-1,3-benzothiazol-5-yl]pyrimidin-2-yl]-3-hydroxy-azetidine-1-carboxylate] were at most 1 µg/mL and at most 1 µg/mL.
The matching figures for `CCNC(=O)Nc1nc2cc(-c3cnc(C(C)OC(=O)N4CCN(C)CC4)nc3)cc(-c3ccccn3)c2s1` (centres unmarked) [Compound 18, 1-[5-[2-(ethylcarbamoylamino)-7-(2-pyridyl)-1,3-benzothiazol-5-yl]pyrimidin-2-yl]ethyl 4-methylpiperazine-1-carboxylate]: at most 1 µg/mL and at most 1 µg/mL.
For the molecule `CCNC(=O)Nc1nc2cc(-c3cnc(C(C)(C)O)nc3)c(OCCOC)cc2s1` [Compound 183, 1-ethyl-3-[5-[2-(1-hydroxy-1-methyl-ethyl)pyrimidin-5-yl]-6-(2-methoxyethoxy)-1,3-benzothiazol-2-yl]urea], the MIC in experiment [2] and in experiment [1] was at most 1 µg/mL throughout.
Take `CCNC(=O)Nc1nc2cc(-c3cnc(C(C)(C)O)nc3)cc(-c3ccc(N4CCC(C)(C(=O)O)CC4)cn3)c2s1` [Compound 45, 1-[6-[2-(ethylcarbamoylamino)-5-[2-(1-hydroxy-1-methyl-ethyl)pyrimidin-5-yl]-1,3-benzothiazol-7-yl]-3-pyridyl]-4-methyl-piperidine-4-carboxylic acid]: the MIC was at most 1 µg/mL in experiment [2] and 2 µg/mL (≈ 3.47 µM) in experiment [1].
The matching figures for `CCNC(=O)Nc1nc2cc(-c3cnc(C(C)(C)O)nc3)c(OCC3CC3)cc2s1` [Compound 182, 1-[6-(cyclopropylmethoxy)-5-[2-(1-hydroxy-1-methyl-ethyl)pyrimidin-5-yl]-1,3-benzothiazol-2-yl]-3-ethyl-urea]: at most 1 µg/mL and at most 1 µg/mL.
Taken in the same sequence, the figures for `CCNC(=O)Nc1nc2cc(-c3cnc(C(C)(C)OC(=O)CCC(=O)OC)nc3)cc(-c3ccccn3)c2s1` [Compound 20, O4-[1-[5-[2-(ethylcarbamoylamino)-7-(2-pyridyl)-1,3-benzothiazol-5-yl]pyrimidin-2-yl]-1-methyl-ethyl] O1-methyl butanedioate] were at most 1 µg/mL and 2 µg/mL (≈ 3.65 µM).
As to `CCNC(=O)Nc1nc2cc(-c3cnc(C(C)O)nc3)cc(-c3cc(C[S+](C)[O-])ccn3)c2s1` (centres unmarked) [Compound 16, 1-ethyl-3-[5-[2-(1-hydroxyethyl)pyrimidin-5-yl]-7-[4-(methylsulfinylmethyl)-2-pyridyl]-1,3-benzothiazol-2-yl]urea], the MIC in experiment [2] was at most 1 µg/mL; in experiment [1] it was 2 µg/mL (≈ 4.03 µM).
In the case of `CCNC(=O)Nc1nc2cc(-c3cnc(C4(O)CNC4)nc3)cc(-c3ccccn3)c2s1` [Compound 163, 1-ethyl-3-[5-[2-(3-hydroxyazetidin-3-yl)pyrimidin-5-yl]-7-(2-pyridyl)-1,3-benzothiazol-2-yl]urea], the MIC in experiment [2] was 8 µg/mL (≈ 17.9 µM).
For the molecule `CCNC(=O)Nc1nc2cc(-c3cnc(C(C)O)nc3)c(N3CCOCC3)cc2s1` (centres unmarked) [Compound 194, 1-ethyl-3-[5-[2-[1-hydroxyethyl]pyrimidin-5-yl]-6-morpholino-1,3-benzothiazol-2-yl]urea], the MIC in experiment [1] turned out to be 16 µg/mL (≈ 37.3 µM).
`CCNC(=O)Nc1nc2cc(-c3cnc(N4CCC(C)(C(=O)O)CC4)nc3)cc(-c3ccc(C(C)(C)O)cn3)c2s1` [Compound 99, 1-[5-[2-(ethylcarbamoylamino)-7-[5-(1-hydroxy-1-methy-ethyl)-2-pyridyl]-1,3-benzothiazol-5-yl]pyrimidin-2-yl]-4-methyl-piperidine-4-carboxylic acid]: the “minimal inhibitory concentration (MIC)” value in experiment [1] was determined as 2 µg/mL (≈ 3.47 µM).
